# Reference: patent publication US20100227921A1, “AMINO ACID AND PEPTIDE CARBAMATE PRODRUGS OF […] USES THEREOF” (SHIRE LLC, priority 2009, published 2010)
# “And” between values parts separate entries of the source, which are not always exact repeats. Equal entries are not always repeated. Where two headings read alike, the source gives them in different places. Marks after values point to notes of the source that are not given here.
# Columns and labels:
# [1] = Comparative bioavailability after oral or intravenous administration to monkeys (plasma LC-MS-MS); assay type: in vivo, cynomolgus monkey; conditions: for half-life: read-out: t½ of tapentadol valine carbamate (converted); for AUC(0-t): read-out: AUCt of tapentadol valine carbamate; for clearance: read-out: CL of tapentadol valine carbamate (converted); for Vd: read-out: Vss of tapentadol valine carbamate; for Tmax: cynomolgus
# Procedure: Test substances i.e., tapentadol and tapentadol valine carbamate were administered (either intravenously or orally) to a group of five male cynomolgus monkeys in a three way crossover design. The oral doses were given at 1 mg tapentadol base equivalents/kg while the intravenous dose was 0.5 mg/kg
# Blood samples were taken at various times after administration and submitted to analysis for the parent drug and tapentadol valine carbamate using a validated LC-MS-MS assay. Pharmacokinetic parameters derived from the plasma analytical data were determined using Win Nonlin.
# [2] = tested on: guinea pig small intestine myenteric plexus longitudinal muscle; test: Electrical field stimulation response of isolated guinea pig small intestine smooth muscle (ex vivo); conditions: isolated guinea pig ileum
# Procedure: Strips of guinea pig small intestine myenteric plexus longitudinal muscle and mounted between platinum ring electrodes. The tissue was stretched to a steady tension of about 1 g and changes in force production were recorded using sensitive transducers.
# The optimal voltage for stimulation was determined while the tissue was paced with electrical field stimulation (EFS) at 14 Hz, with a pulse width of 0.5 msec (Trains of pulses for 20 seconds, every 50 seconds).
# EFS at optimal voltage continued throughout the protocol (stable responses=“baseline measurement of EFS”).
# The 3 test conditions employed were as follows:
# (1) Vehicle (deionised water, added at equivalent volume additions to test articles), (2) Tapentadol at 6 concentrations (10 nM, 100 nM, 1 μM, 3 μM, 10 μM & 30 μM) (3) Tapentadol valine carbamate at 6 concentrations (10 nM, 100 nM, 1 μM, 3 μM, 10 μM, & 30 μM).
# Following 10 minutes of baseline EFS, first addition of test article or vehicle (deionized water) was performed.
# Test concentrations were added in a non-cumulative manner with PSS washes between each addition. Next, TTX (Na+ channel blocker) was added to confirm EFS responses were elicited via nerve stimulation. EFS was then stopped.
# [3] = male monkey, i.v. tapentadol valine carbamate 0.5 mg tapentadol free base equiv/kg, individual animals 1-5
# [4] = male monkey, oral tapentadol valine carbamate 1 mg tapentadol free base equiv/kg, individual animals 1-5
# [5] = male, cynomolgus monkey, plasma, iv, 0.5 mg/kg, male monkey, i.v. tapentadol valine carbamate 0.5 mg tapentadol free base equiv/kg, individual animals 1-5
# [6] = male, cynomolgus monkey, plasma, iv, 0.5 mg/kg, male monkey, i.v. tapentadol valine carbamate 0.5 mg tapentadol free base equiv/kg, mean
# [7] = male, cynomolgus monkey, plasma, po, 1 mg tapentadol free base equiv/kg, male monkey, oral tapentadol valine carbamate 1 mg tapentadol free base equiv/kg, individual animals 1-5
# [8] = male, cynomolgus monkey, plasma, po, 1 mg tapentadol free base equiv/kg, male monkey, oral tapentadol valine carbamate 1 mg tapentadol free base equiv/kg, mean
smiles,measurement,setting,value
"CC[C@H](c1cccc(OC(=O)N[C@H](C(=O)O)C(C)C)c1)[C@H](C)CN(C)C (racemic) [Tapentadol valine carbamate, 2-[3-(3-Dimethylamino-1-ethyl-2-methyl-propyl)-phenoxycarbonylamino]-3-methyl-butyric acid]",Plasma concentration of tapentadol valine carbamate,"[1]; male monkey, i.v. tapentadol valine carbamate 0.5 mg tapentadol free base equiv/kg, 1 h, individual animals 1-5",205 ng/mL and 326 ng/mL and 274 ng/mL and 251 ng/mL
same,Plasma concentration of tapentadol valine carbamate,"[1]; male monkey, i.v. tapentadol valine carbamate 0.5 mg tapentadol free base equiv/kg, 2 h, individual animals 1-5",112.1 ng/mL and 115.5 ng/mL and 85.6 ng/mL and 87.7 ng/mL
same,Plasma concentration of tapentadol valine carbamate,"[1]; male monkey, i.v. tapentadol valine carbamate 0.5 mg tapentadol free base equiv/kg, 4 h, individual animals 1-5",20.0 ng/mL and 21.4 ng/mL and 12.2 ng/mL and 14.6 ng/mL
same,Plasma concentration of tapentadol valine carbamate,"[1]; male monkey, i.v. tapentadol valine carbamate 0.5 mg tapentadol free base equiv/kg, 6 h, individual animals 1-5",4.94 ng/mL and 6.10 ng/mL and 3.48 ng/mL and 4.20 ng/mL
same,Plasma concentration of tapentadol valine carbamate,"[1]; male monkey, i.v. tapentadol valine carbamate 0.5 mg tapentadol free base equiv/kg, 9 h, individual animals 1-5",1.04 ng/mL and 0.769 ng/mL and 1.89 ng/mL and 1.20 ng/mL and 1.35 ng/mL
same,AUC of tapentadol valine carbamate,[1]; [3],926 ng·h/mL and 1050 ng·h/mL and 915 ng·h/mL and 846 ng·h/mL
same,AUCt of tapentadol valine carbamate,[1]; [3],925 ng·h/mL and 1040 ng·h/mL and 912 ng·h/mL and 843 ng·h/mL
same,C0 of tapentadol valine carbamate,[1]; [3],794 ng/mL and 1020 ng/mL and 949 ng/mL and 1930 ng/mL and 1260 ng/mL
same,CL of tapentadol valine carbamate,[1]; [3],9 mL/min/kg and 7.97 mL/min/kg and 9.12 mL/min/kg and 8.18 mL/min/kg
same,Vss of tapentadol valine carbamate,[1]; [3],0.529 L/kg and 0.499 L/kg and 0.481 L/kg and 0.562 L/kg
same,t½ of tapentadol valine carbamate,[1]; [3],1.1 h
same,AUC of tapentadol valine carbamate,[1]; [4],219 ng·h/mL and 367 ng·h/mL and 368 ng·h/mL and 48 ng·h/mL and 436 ng·h/mL
same,AUCt of tapentadol valine carbamate,[1]; [4],216 ng·h/mL and 351 ng·h/mL and 358 ng·h/mL and 187 ng·h/mL and 432 ng·h/mL
same,Cmax of tapentadol valine carbamate,[1]; [4],150 ng/mL and 176 ng/mL and 153 ng/mL and 92.1 ng/mL and 249 ng/mL
same,T>50%Cmax of tapentadol valine carbamate,[1]; [4],0.5 h (4×) and 1 h
same,t½ of tapentadol valine carbamate,[1]; [4],3.35 h and 2.48 h and 1.86 h and 2.88 h
same,T>50%Cmax of tapentadol valine carbamate,"[1]; male monkey, oral tapentadol valine carbamate 1 mg tapentadol free base equiv/kg, median",0.5^a h
same,Plasma concentration of tapentadol valine carbamate,"[1]; male monkey, oral tapentadol valine carbamate 10 mg tapentadol free base equiv/kg, 0.5 h, individual animals 1-5",150 ng/mL and 176 ng/mL and 153 ng/mL and 34.7 ng/mL and 249 ng/mL
same,Plasma concentration of tapentadol valine carbamate,"[1]; male monkey, oral tapentadol valine carbamate 10 mg tapentadol free base equiv/kg, 0.5 h, mean",153 ng/mL
same,Plasma concentration of tapentadol valine carbamate,"[1]; male monkey, oral tapentadol valine carbamate 10 mg tapentadol free base equiv/kg, 1 h, individual animals 1-5",96.1 ng/mL and 126 ng/mL and 127 ng/mL and 92.1 ng/mL and 227 ng/mL
same,Plasma concentration of tapentadol valine carbamate,"[1]; male monkey, oral tapentadol valine carbamate 10 mg tapentadol free base equiv/kg, 1 h, mean",134 ng/mL
same,Plasma concentration of tapentadol valine carbamate,"[1]; male monkey, oral tapentadol valine carbamate 10 mg tapentadol free base equiv/kg, 2 h, individual animals 1-5",31.8 ng/mL and 71.3 ng/mL and 58.9 ng/mL and 49.4 ng/mL and 87.9 ng/mL
same,Plasma concentration of tapentadol valine carbamate,"[1]; male monkey, oral tapentadol valine carbamate 10 mg tapentadol free base equiv/kg, 2 h, mean",59.9 ng/mL
same,Plasma concentration of tapentadol valine carbamate,"[1]; male monkey, oral tapentadol valine carbamate 10 mg tapentadol free base equiv/kg, 3 h, individual animals 1-5",10.7 ng/mL and 23.1 ng/mL and 25.2 ng/mL and 16.4 ng/mL and 22.1 ng/mL
same,Plasma concentration of tapentadol valine carbamate,"[1]; male monkey, oral tapentadol valine carbamate 10 mg tapentadol free base equiv/kg, 3 h, mean",19.5 ng/mL
same,Plasma concentration of tapentadol valine carbamate,"[1]; male monkey, oral tapentadol valine carbamate 10 mg tapentadol free base equiv/kg, 4 h, individual animals 1-5",5.49 ng/mL and 15.1 ng/mL and 25.7 ng/mL and 12.7 ng/mL and 6.89 ng/mL
same,Plasma concentration of tapentadol valine carbamate,"[1]; male monkey, oral tapentadol valine carbamate 10 mg tapentadol free base equiv/kg, 4 h, mean",13.2 ng/mL
same,Plasma concentration of tapentadol valine carbamate,"[1]; male monkey, oral tapentadol valine carbamate 10 mg tapentadol free base equiv/kg, 6 h, individual animals 1-5",4.60 ng/mL and 10.0 ng/mL and 17.0 ng/mL and 4.51 ng/mL and 3.93 ng/mL
same,Plasma concentration of tapentadol valine carbamate,"[1]; male monkey, oral tapentadol valine carbamate 10 mg tapentadol free base equiv/kg, 6 h, mean",8.01 ng/mL
same,Plasma concentration of tapentadol valine carbamate,"[1]; male monkey, oral tapentadol valine carbamate 10 mg tapentadol free base equiv/kg, 9 h, individual animals 1-5",1.93 ng/mL and 7.34 ng/mL and 5.61 ng/mL and 1.11 ng/mL and 1.86 ng/mL
same,Plasma concentration of tapentadol valine carbamate,"[1]; male monkey, oral tapentadol valine carbamate 10 mg tapentadol free base equiv/kg, 9 h, mean",3.57 ng/mL
same,Plasma concentration of tapentadol valine carbamate,"[1]; male monkey, oral tapentadol valine carbamate 10 mg tapentadol free base equiv/kg, 12 h, individual animals 1-5",0.741 ng/mL and 2.97 ng/mL and 3.04 ng/mL and 0.716 ng/mL and 0.929 ng/mL
same,Plasma concentration of tapentadol valine carbamate,"[1]; male monkey, oral tapentadol valine carbamate 10 mg tapentadol free base equiv/kg, 12 h, mean",1.68 ng/mL
same,concentration at 0.083 h,"[1]; male, cynomolgus monkey, plasma, iv, 0.5 mg tapentadol free base equiv/kg, male monkey, i.v. tapentadol valine carbamate 0.5 mg tapentadol free base equiv/kg, 0.083 h, mean",969 ng/mL
same,concentration at 0.25 h,"[1]; male, cynomolgus monkey, plasma, iv, 0.5 mg tapentadol free base equiv/kg, male monkey, i.v. tapentadol valine carbamate 0.5 mg tapentadol free base equiv/kg, 0.25 h, mean",711 ng/mL
same,concentration at 0.5 h,"[1]; male, cynomolgus monkey, plasma, iv, 0.5 mg tapentadol free base equiv/kg, male monkey, i.v. tapentadol valine carbamate 0.5 mg tapentadol free base equiv/kg, 0.5 h, mean",471 ng/mL
same,concentration at 1 h,"[1]; male, cynomolgus monkey, plasma, iv, 0.5 mg tapentadol free base equiv/kg, male monkey, i.v. tapentadol valine carbamate 0.5 mg tapentadol free base equiv/kg, 1 h, mean",255 ng/mL
same,concentration at 2 h,"[1]; male, cynomolgus monkey, plasma, iv, 0.5 mg tapentadol free base equiv/kg, male monkey, i.v. tapentadol valine carbamate 0.5 mg tapentadol free base equiv/kg, 2 h, mean",98.6 ng/mL
same,concentration at 4 h,"[1]; male, cynomolgus monkey, plasma, iv, 0.5 mg tapentadol free base equiv/kg, male monkey, i.v. tapentadol valine carbamate 0.5 mg tapentadol free base equiv/kg, 4 h, mean",16 ng/mL
same,concentration at 6 h,"[1]; male, cynomolgus monkey, plasma, iv, 0.5 mg tapentadol free base equiv/kg, male monkey, i.v. tapentadol valine carbamate 0.5 mg tapentadol free base equiv/kg, 6 h, mean",4.39 ng/mL
same,concentration at 9 h,"[1]; male, cynomolgus monkey, plasma, iv, 0.5 mg tapentadol free base equiv/kg, male monkey, i.v. tapentadol valine carbamate 0.5 mg tapentadol free base equiv/kg, 9 h, mean",1.25 ng/mL
same,half-life,"[1]; male, cynomolgus monkey, plasma, iv, 0.5 mg/kg, male monkey, i.v. tapentadol valine carbamate 0.5 mg tapentadol free base equiv/kg, calculated as ln2/mean k",1.4 h
same,AUC,[1]; [5],680 ng·h/mL
same,AUC(0-t),[1]; [5],678 ng·h/mL
same,clearance,[1]; [5],12.2 mL/min/kg
same,Vd,[1]; [5],0.75 L/kg
same,half-life,[1]; [5],1.5 h
same,AUC,[1]; [6],883 ng·h/mL
same,C0,[1]; [6],1190 ng/mL
same,AUC(0-t),[1]; [6],880 ng·h/mL
same,clearance,[1]; [6],9.63 mL/min/kg
same,Vd,[1]; [6],0.564 L/kg
same,half-life,"[1]; male, cynomolgus monkey, plasma, po, 1 mg tapentadol free base equiv/kg, male monkey, oral tapentadol valine carbamate 1 mg tapentadol free base equiv/kg, calculated as ln2/mean k",2.47 h
same,half-life,[1]; [7],2.28 h
same,AUC,[1]; [8],316 ng·h/mL
same,Cmax,[1]; [8],164 ng/mL
same,AUC(0-t),[1]; [8],309 ng·h/mL
same,Tmax,[1]; [7],0.5 h
same,Tmax,"[1]; male, cynomolgus monkey, plasma, po, 1 mg tapentadol free base equiv/kg, male monkey, oral tapentadol valine carbamate 1 mg tapentadol free base equiv/kg, median",0.5 h
same,prodrug absorbed after oral administration,"[1]; monkey, comparison of AUC after oral (Table 13) and intravenous dosing (Table 12)",at least 36%
same,EC50,"[2]; Cavia porcellus, EFS 14 Hz, non-cumulative 10 nM-30 μM, read-out: approximate EC50, effect on electrical field stimulation response",~10 µM
same,reduction in the opioid effects on ileal smooth muscle compared to tapentadol,[2]; EFS,50 fold
